Earlier results as cited in patent publication CN106749267A, “新的表皮生长因子受体抑制剂及其应用” (Nanjing Sanhome Pharmaceutical Co Ltd, priority 2015, dated 2017).
Read-outs that look alike come from different tables or passages of the source.

SMILES	blood glucose increase side effect (in vivo)	blood glucose increase side effect (literature report, hyperglycemia from EGFR TKIs)
C=CC(=O)Nc1cc(Nc2nccc(-c3cn(C)c4ccccc34)n2)c(OC)cc1N(C)CCN(C)C [AZD9291]	一定程度的升高	
C=CC(=O)Nc1cccc(Nc2nc(Nc3ccc(N4CCN(C(C)=O)CC4)cc3OC)ncc2C(F)(F)F)c1 [Rociletinib]		一定程度的升高
